Source: paper PMC13198257, “An aerosolized dual-action autotaxin inhibitor-PPARγ agonist for the treatment of pulmonary fibrosis” (Cell Reports Medicine, 2026)
“Also recorded” adds a separate entry of the source.

Experiments:
PPARγ = target: T1, PPARγ (Homo sapiens, UniProt P37231); test: PPARγ Gal4 hybrid reporter gene assay; type: cell-based; conditions: for EC50 / PPARγ fold activ. (max. activation): Gal4-hybrid reporter, HEK293T cells; for Selectivity for PPARγ: versus PPARα and PPARδ hybrid reporters
T1 construct: expressed in transfected cells; host or cells: HEK293T
T1 sequence (P37231 238-503 limits assumed): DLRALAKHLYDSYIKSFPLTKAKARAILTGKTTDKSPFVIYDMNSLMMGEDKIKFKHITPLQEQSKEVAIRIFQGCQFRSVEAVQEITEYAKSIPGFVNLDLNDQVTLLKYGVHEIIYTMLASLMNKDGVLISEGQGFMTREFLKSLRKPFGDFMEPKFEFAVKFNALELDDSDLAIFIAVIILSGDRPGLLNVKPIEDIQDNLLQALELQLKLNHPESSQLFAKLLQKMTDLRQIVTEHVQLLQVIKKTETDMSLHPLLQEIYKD
Description: All well-established assays were performed following straightforward methodology.[49] Plasmids pFA-CMV-hPPARα-LBD, pFA-CMV-hPPARγ-LBD and pFA-CMV-hPPARδ-LBD code for the hinge region and ligand binding domain of the canonical isoform of the respective nuclear receptor and were used to express the Gal4 hybrid receptors. pFR-Luc (Stratagene, La Jolla, CA, USA) and pRL-SV40 (Promega, Madison, WI, USA) were used as Gal4-responsive reporter and as internal control in the hybrid reporter gene assays, respectively. HEK293T cells were seeded in 96-well plates (3×10^4 cells/well). Before transfection, the medium was changed to Opti-MEM without supplements, and transient transfection with the plasmids pFR-Luc, pRL-SV40, and one pFA-CMV-NR-LBD clone was carried out using Lipofectamine LTX reagent (Invitrogen, Carlsbad, CA, USA) according to the manufacturer’s protocol. […] Normalisation of transfection efficiency and cell growth was performed by dividing firefly luminescence by Renilla luminescence and multiplying the result by 1000, yielding relative light units (RLU). Fold activation was obtained by dividing the mean RLU of the test compound by the mean RLU of the untreated control.

ATX = target: T2, ATX (Homo sapiens, UniProt Q13822); test: Mode of ATX inhibition, Lineweaver-Burk plots (various LPC concentrations); type: biochemical
T2 construct: purchased Sino Biological 11308-H07H
Description: To determine the mode of inhibition of ATX, various concentrations of TGZ, compound 5 and EL244 were tested against various LPC concentrations. Specifically, TGZ was tested against 6.25, 12.5, 25, 50 and 100 μM LPC, compound 5 was tested against 3.125, 6.25, 12.5, 25, 50 and 100 μM LPC, while EL244 was tested against 25, 50, 100 and 150 μM LPC. Lineweaver–Burk graphs depicting the reciprocal of velocity (1/V) against the reciprocal of substrate concentration (1/S) were plotted with GraphPad Software.

[1] = system: choline oxidase and horseradish peroxidase; test: Interference with the 2nd and 3rd reaction of the Amplex Red assay; type: biochemical
Description: ATX inhibitory activity in vitro of examined compounds was assessed with the Amplex Red assay,[32]^,[35]^,[36] as recently published in detail.[37] The assay was done in Amplex Red Assay buffer (Tris 50 mM, CaCl2 5 mM, pH 8). Briefly, 50 μL of increasing concentrations of each compound were placed in separate wells of a black 96-well plate. […] 50 μL of the LPC-containing assay buffer (200 μM) were added to the wells and incubated for 30 min at 37°C to allow the enzyme to initially interact with its substrate. 50 μL of the detection mix (Amplex Red 200 μM, choline oxidase 0.4 U/mL, horseradish peroxidase 4 U/mL) were added to the plate wells. Fluorescence was measured in a Tecan M200 Fluorimeter using excitation at 530 nm and reading at 590 nm, every 5 min for 30 min. The velocity of the reaction and the remaining ATX activity were calculated at the linear phase of the reaction. Dose-response inhibition graphs were plotted with GraphPad Software.
Figure S3. Kinetic analysis of ATX inhibition. Related to Figures 3 and 4
(B) Kinetics for the second (oxidation of choline catalysed by choline oxidase) and third reaction (the conversion of the
Amplex substrate to the fluorescent resorufin catalysed by horseradish peroxidase, HRP) of the Amplex Red Lyso-
phospholipase D assay for representative compounds (TGZ, 4, 5 and EL244). The first reaction includes the conversion of
LPC to LPA catalysed by ATX.
Kinetic graphs are indicative of three technical replicates. […]

NHLFs [2] = test: TGF-β-induced normal human lung fibroblasts (NHLFs): fibrotic markers and PPARγ target genes; type: cell-based; conditions: 75 μΜ, TGFβ 10 ng/ml
Description: Normal human lung fibroblasts (NHLFs), clone 832, were isolated from the adjacent healthy tissue of a patient undergoing open lung surgery for cancer at the Department of Pulmonology, Bichat-Claude Bernard Hospital, Paris/France; studies were approved by the Committee for Personal Protection (CPP)—Ile de France 1 (#0911932). The patient provided written consent to the use of his/her sample for research purposes; no compensation was provided. NHLFs were cultured in DMEM supplemented with 10% FBS, 1% penicillin/streptomycin, and 0.1% amphotericin B at 37 °C, 5% CO2 and ≥95% relative humidity.
For experiments, NHLFs were seeded in 6-well plates at a density of 2 × 10^5 cells per well. After overnight serum starvation, cells were pre-treated with EL244 or vehicle (concentrations specified in the corresponding figures) for 1 h, followed by stimulation with TGFβ (10 ng/mL) for 24 h.
Cells were washed twice with ice-cold 1× PBS and lysed in RIPA buffer containing 50 mM Tris-HCl (pH 7.4), 1 mM EDTA, 150 mM NaCl, 0.25% (w/v) sodium deoxycholate, 1% (v/v) Triton X-100, 0.1% (w/v) SDS and 1 mM PMSF. Equal amounts of protein extracts (30 μg) were separated into 10% SDS-PAGE gels and subsequently electro-transferred onto nitrocellulose membranes. Membranes were blocked for 1 h at room temperature in 1X TBS-T containing 5% non-fat dry milk. […] Immunoreactive protein bands were detected using ECL.

NHLFs [3] = test: Mitotracker assay in NHLFs; type: cell-based, human; conditions: 25 μM, TGFβ 10 ng/mL, 24 h
Description: NHLFs were plated at a density of 1,2 × 10^4 cells/well of a 96-well plate. The next day TGFβ (10 ng/mL) and EL244 (25 μM) or vehicle (DMSO) were added to the respective wells and incubated for 24 h. Medium was replaced with DMEM without phenol red that contained LumiTracker Mito Red CMXRos at 25 nM and a 30 min incubation followed. Medium was replaced with fresh DMEM without phenol red and without Lumitracker. Fluorescence was measured (excitation at 580 nm and reading at 600 nm) with a Tecan M200 Fluorimeter and normalized with cell number per well as measured with a Tecan Cyto Spark after cell fixation with PFA at a final concentration of 2%.

| SMILES | EC50 (PPARγ) [nM] | PPARγ fold activ. (max. activation) (PPARγ) [fold] | Selectivity for PPARγ (PPARγ) | Mode of ATX inhibition (ATX) | Interference on the 2nd and 3rd steps of the Amplex Red assay [1] | Col1a1 and Acta2 (aSMA) mRNA and protein (NHLFs [2]) | PPARγ target genes and PPARγ expression (NHLFs [2]) | TGF-β-induced mitochondrial activation (NHLFs [3]) |
| --- | --- | --- | --- | --- | --- | --- | --- | --- |
| O=C1NC(=O)C(Cc2ccc(OCCN3CCN(C(=O)OCc4cc(Cl)cc(Cl)c4)CC3)cc2)S1 (stereo not shown) [Compound 5, 3,5-dichlorobenzyl4-(2-(4-((2,4-dioxothiazolidin-5-yl)methyl)phenoxy)ethyl)piperazine-1-carboxylate] | 1500 | 9 ± 1 | selective PPARγ agonist | non-competitive | Minimal interference; also recorded: not involved at all in the second and third reaction |  |  |  |
| O=C1NC(=O)C(Cc2ccc(OCCC3CCN(C(=O)OCc4cc(Cl)cc(Cl)c4)CC3)cc2)S1 (stereo not shown) [EL244, 3,5-dichlorobenzyl 4-(2-(4-((2,4-dioxothiazolidin-5-yl)methyl)phenoxy)ethyl)piperidine-1-carboxylate] | 1300 | 17 ± 1 | selectively | competitive | not involved at all in the second and third reaction | suppressed | stimulating the expression of PPARγ target genes | reduced TGF-β-induced mitochondrial activation |
